Measurements: patent publication US20240343723A1, “CRYSTAL FORM OF LANIFIBRANOR, PREPARATION METHOD THEREFOR, AND USE THEREOF” (CRYSTAL PHARMACEUTICAL (SUZHOU) CO., LTD., priority 2021, published 2024)
“Also recorded” adds a separate entry of the source.

Columns and labels:
Assay type in all cases: physicochemical
[1] = Dynamic vapor sorption (DVS) hygroscopicity, with XRPD before and after DVS; settings: for crystalline state after DVS (XRPD): humidity cycle 0%-95%-0% RH; for weight gain from 0% to 70% RH: 25° C., cycle of 0%-95%-0% RH
Protocol: Dynamic Vapor Sorption (DVS) was measured via an SMS (Surface Measurement Systems Ltd.) intrinsic DVS instrument. The instrument control software is DVS-Intrinsic control software. Typical Parameters for DVS test are as follows: • Temperature: 25° C. • Gas and flow rate: N2, 200 mL/min • RH range: 0% RH to 95% RH Dynamic vapor sorption (DVS) analyzer was applied to evaluate the hygroscopicity of amorphous with a certain amount of sample obtained by Example 6. The weight gains at each relative humidity were recorded in a cycle of 0%-95%-0% RH. […] Dynamic vapor sorption (DVS) analyzer was applied to evaluate hygroscopicity of Form CSV with a certain amount of sample. The weight gains at each relative humidity were recorded in a cycle of 0%-95%-0% RH. Dynamic vapor sorption (DVS) analyzer was applied to evaluate hygroscopicity of Form CSIII with a certain amount of sample. The weight gains at each relative humidity were recorded in a cycle of 0%-95%-0% RH. The XRPD patterns of Form CSIII before and after DVS test are shown in FIG. 13 and the DVS curve of Form CSIII is shown in FIG. 13.

[2] = Physical and chemical stability on storage (XRPD, HPLC); settings: for chemical purity during storage: HPLC; for Form after storage: XRPD
Protocol: A certain amount of Form CSV of the present disclosure was stored under different conditions of 40° C./75% RH and 60° C./75% RH. Crystalline form and chemical purity were checked by XRPD and HPLC, respectively. Open packaged: Put the sample into a glass vial, cover the vial with aluminum foil, and punch 5-10 holes in the foil. Sealed packaged: Put the sample into a glass vial, and seal the vial and desiccant in an aluminum foil bag. A certain amount of Form CSIII of the present disclosure was stored under different conditions of 25° C./60% RH and 40° C./75% RH with sealed and open packaged. Crystalline form and chemical purity were checked by XRPD and HPLC, respectively. Open packaged: Put the sample into a glass vial, cover the vial with an aluminum foil, and punch 5-10 holes in the foil. Sealed packaged: Put the sample into a glass vial, and seal the vial and desiccant in an aluminum foil bag.

[3] = Flowability by compressibility index (bulk and tapped density)
Protocol: Compressibility index is usually utilized to evaluate the flowability of powder or granules during the drug product process. Compressibility index test method is as follows: a certain amount of powder was added into a measuring cylinder and bulk volume was recorded. Then the powder was tapped to make it in the tightest state and the tapped volume was recorded. The bulk density (ρ0) and tapped density (ρf) were calculated and compressibility index was calculated according to c=(ρf−ρ0)/ρf.

[4] = Physical stability upon mechanical force (tableting, XRPD)
From the text: A certain amount of Form CSV was compressed into tablet under different pressures with suitable tableting die. Crystalline form before and after tableting were checked by XRPD.

[5] = Adhesiveness: material sticking to the punch after compression; settings: about 30 mg, 8 mm round tooling, 10 kN held for 30s
Protocol: ENERPAC manual tablet press was used for testing. Approximately 30 mg of Form CSV was weighed and then added into the dies of @8 mm round tooling, compressed at 10 kN and held for 30s. The punch was weighed and the amount of material sticking to the punch was calculated. The compression was repeated twice and the maximum amount and average amount of material sticking to the punch during the compression were recorded.

[6] = 40° C./75% RH, open and sealed package

O=C(O)CCCc1cc2cc(Cl)ccc2n1S(=O)(=O)c1ccc2ncsc2c1 [Form CSIII, 5-Chloro-1-[(6-benzothiazolyl)sulfonyl]-1H-indole-2-butanoic acid]
crystalline state after DVS (XRPD) [1]: remains unchanged
chemical purity during storage ([2]; 25° C./60% RH, at least 6 months): above 99.5%
time for which the form is stable ([2]; 25° C./60% RH, sealed and open packaged): at least 6 months
chemical purity during storage ([2]; 40° C./75% RH, at least 2 months): above 99.5%
time for which the form is stable [2, 6]: at least 2 months

O=C(O)CCCc1cc2cc(Cl)ccc2n1S(=O)(=O)c1ccc2ncsc2c1 [Form CSV, 5-Chloro-1-[(6-benzothiazolyl)sulfonyl]-1H-indole-2-butanoic acid]
Bulk density [3]: 0.412 g/mL
Tapped density [3]: 0.515 g/mL
Flowability ([3]; class by compressibility index, ICH Q4B Annex 13): Fair (16-20)
weight gain from 0% to 70% RH ([1]; DVS): 0.35%
crystalline state after DVS (XRPD) [1]: remains unchanged; also recorded: doesn't change
Solid form after tableting ([4]; Pressure 5 kN): Form CSV
Solid form after tableting ([4]; Pressure 10 kN): Form CSV
Solid form after tableting ([4]; Pressure 20 kN): Form CSV
time for which the form is stable [2, 6]: at least 9 months
Form after storage ([2]; 40° C./75% RH, open packaged, 9 months): Form CSV
Form after storage ([2]; 40° C./75% RH, sealed packaged, 9 months): Form CSV
time for which the form is stable ([2]; 60° C./75% RH, open and sealed package): at least 1 month
Form after storage ([2]; 60° C./75% RH, open packaged, 1 month): Form CSV
Form after storage ([2]; 60° C./75% RH, sealed packaged, 1 month): Form CSV
average adhesion amount [5]: 0.45 mg

O=C(O)CCCc1cc2cc(Cl)ccc2n1S(=O)(=O)c1ccc2ncsc2c1 [amorphous, 5-Chloro-1-[(6-benzothiazolyl)sulfonyl]-1H-indole-2-butanoic acid, reference compound]
weight gain of amorphous from 0 to 70% RH relative to that of Form CSV ([1]; DVS, 0 to 70% RH): about 3.4 times
weight gain from 0% to 70% RH ([1]; DVS): 1.18%
weight gain from 0% to 70% RH ([1]; DVS, listed as prior art amorphous): 1.18%
